Results as given in a melting point compilation (Tetko et al.; mined from patent text by program, amines drawn as free bases though some values may be those of a salt).

Row | melting point | SMILES
1 | 104 to 105 °C | Nc1ccccc1S(=O)(=O)N1CC=CC1
2 | 206 to 208 °C | Cc1c(F)cccc1Cc1c(-c2ccccc2)c2cc(O)cnn2c1C(=O)N1CCNCC1
3 | 92 °C | Oc1c(CN2CCCC2)cc(Nc2ccnc3cc(Cl)ccc23)cc1CN1CCCC1
4 | > 250 °C | O=C(O)Cc1ccn2c(=O)c(C(=O)O)ccc2c1
5 | 103 to 106 °C | O=c1oc(-c2ccc(OCCc3ccccc3)cc2)cc(O)c1SCCc1ccccc1
6 | 95 to 96 °C | Cc1noc(C)c1Cn1cc(N2C(=O)CN(CCc3ccccc3)C2=O)cn1
7 | 135 °C | COc1ccc(S(=O)C(C(=O)NO)c2ccccc2)cc1 (stereo not given)
8 | 287 °C | Cc1[nH]c(C(=O)NCC2=NNC(=O)CC2)c(C)c1-c1nc2ccc(C(=O)c3ccccc3)cc2[nH]1
9 | 78 °C | c1ccc2cc(OCCCNN3CCCCC3)ccc2c1
10 | 178 to 180 °C | CCOC(=O)c1ccc(C(=O)O)c2c([N+](=O)[O-])cccc12
11 | 191 to 192 °C | COC(=O)C(=CNc1ccc(O)cc1)C(=O)C=Cc1ccc2ccccc2c1
12 | 140 to 143 °C | Cc1noc(NS(=O)(=O)c2ccccc2)c1Cl
13 | 254 to 257 °C | O=C1CCCC2=C1C(c1ccc(F)c(Br)c1)C1=C(CCCC1)N2 (stereo not given)
14 | 265 to 267 °C | CCn1cc(C(=O)NC2CCCCC2)c(=O)c2cnc(N3CCCC3)nc21
15 | 238 to 239 °C | Nc1cc(N2CCC(O)CC2)c(F)cc1[N+](=O)[O-]
16 | 155 to 158 °C | Cc1ccccc1NC1=CC(=O)NCC1
17 | 139 to 140 °C | O=C([C@@H]1CCCN1C(=O)OCc1ccccc1)N1CCOCC1
18 | 153 to 154 °C | O=C(COc1ccccc1)N[C@H]1C(=O)N[C@H]1CO (relative stereo)

Row | melting point | SMILES
19 | 75 to 76 °C | Sc1nnnn1CCCc1ccccc1
20 | 151 °C | CCc1nc(-c2ncn3c2CCCc2ccccc2-3)no1
21 | 144 to 148 °C | NCC1CCN(c2nccc(C(N)=O)n2)CC1
22 | 130 °C | Cc1cc(-n2ccnc2)c2cccc(OCc3c(Cl)ccc(S(=O)(=O)N4CCCC4C(=O)NCC4CCCCN4C(=O)CC(=O)O)c3Cl)c2n1 (stereo not given)
23 | 175 °C | CC1(C)CCCN(C(=O)CN(C(=O)CNC(=O)Nc2cccc(CCO)c2)c2ccccc2)C1
24 | 114 °C | O=c1c2ccccc2nnn1CCO
25 | 225 to 230 °C | COc1cc2ncc(C#N)c(Nc3ccc(F)c(Cl)c3)c2cc1NC(=O)C=CCN1CCC(O)(O)CC1
26 | 100 to 102 °C | CC(=O)c1c(C)nc2c(OCc3c(Cl)ccc(S(=O)(=O)N4CCC[C@H]4C(=O)NCCCNC(=O)c4ccc(C#N)cc4)c3Cl)cccn12
27 | 137 to 138 °C | CONC(=O)Nc1ccc(-c2sc3c(c2CNC(C)c2ccccc2)c(=O)n(C2CCC(O)CC2)c(=O)n3Cc2c(F)cccc2F)cc1 (stereo not given)
28 | 110 to 112 °C | CN1Cc2cscc2Nc2ccccc21
29 | 55 to 57 °C | COCOc1ccc(OCc2ccccc2)c(CBr)c1
30 | 160 °C | c1ccc2c(c1)OC[C@H](CN1CCC(CNc3nc4cccnc4s3)CC1)O2
31 | 106 to 108 °C | O=C1C(CCO)Oc2cc([N+](=O)[O-])ccc2N1Cc1ccccc1Cl (stereo not given)
32 | 243 to 244 °C | NC1=NC(c2ccccc2)=NCC1(N)N=O (stereo not given)
33 | 128 to 130 °C | COc1ccc(-c2c(Cl)c(CN3C(=O)CCC3=O)nc3sc4c(c23)CCN(Cc2ccccc2)C4)cc1OC
34 | 184 °C | CC(=O)Nc1ccc(S(=O)(=O)N2CCN(C)CC2)cc1
35 | 169 °C | O=C(O)Cc1ccc(SCc2ccccc2C(=O)O)cc1
36 | 172 to 175 °C | O=C1N(Cc2ccc(Cl)cc2)c2ccccc2C1(O)c1cc(OCc2ccccc2)ccc1O (stereo not given)

Second part, the compound before the results:

Row | SMILES | melting point
37 | CCCCCCCNCCCCCO | 47 to 48 °C
38 | COc1cc(NC(=O)CC(C)=O)c(OC)cc1Cl | 105 to 106 °C
39 | Nc1cccc(O)c1NC(=O)Nc1cccc(C(F)(F)F)c1 | 188 to 189 °C
40 | COc1ccc(OC2=CCNCC2)cc1 | 45 to 46 °C
41 | CCN(CC)S(=O)(=O)c1cc2c(ccc3nc(N)[nH]c(=O)c32)cc1Br | > 250 °C
42 | CCCCCCCCCCN(O)C(=O)N(C)C | 44 to 45 °C
43 | Cc1ccc(OCn2cc(Cl)cnc2=O)cc1 | 186 °C
44 | CS(=O)(=O)n1c2cc(O)c(O)cc2c2c(Br)cc(O)c(O)c21 | > 270 °C
45 | COc1cc(C(F)(F)F)nn1-c1ccc(NC(=O)c2ccncc2F)cc1 | 160 to 161 °C
46 | CCCCCCCCCCNC(=O)c1ccc(C(=O)NCCCCCCCCCC)c(N(CC(=O)OC)CC(=O)OC)c1 | 76 to 78 °C
47 | N#Cc1ccc(-c2cc3ccccc3[nH]2)cc1 | 201 °C
48 | CCOC(=O)c1cn(-c2cnc(Cl)c(N)c2)c2c(Cl)c(F)c(F)cc2c1=O | 233 to 236 °C
49 | O=C1Cc2cccc(Oc3cccc(Cl)c3)c2O1 | 105 to 106 °C
50 | O=c1cc(-c2ccccc2)n(-c2ccccc2Cl)c(-c2ccccc2)c1Cl | 230 to 233 °C
51 | N=C(NO)c1nc(-c2ccc(Cl)cc2)cc(C(F)(F)F)n1 | 243 °C
52 | Clc1ccc2c(c1)C(c1ccccc1Cl)NCc1cncnc1-2 (stereo not given) | 169 to 170 °C
53 | COC(=O)c1ccc(C#CC#C[Si](C)(C)C)cc1 | 67 to 68 °C
54 | COc1cc2c(cc1Cl)CCNCC2c1ccc(Br)cc1 (stereo not given) | 139 to 140 °C
55 | CCOc1ccc(SCCSc2ccc(OCC)cc2)cc1 | 90 °C
56 | CC(C)n1nc(-c2cc(C#N)c(Cl)nc2-c2ccccc2)ccc1=O | 191 to 192 °C
57 | CC1(c2ccc(-c3ccc(Cl)cc3)cc2)CC(=O)NN1 (stereo not given) | 214 to 215 °C
58 | Cc1cc(F)cc([N+](=O)[O-])c1C#N | 61 to 63 °C

Row | SMILES | melting point
59 | CC(=O)OC1C=C(C)C(=O)CC(C)(C)C1OC(=O)c1ccc(Cl)cc1 (stereo not given) | 86 to 87 °C
60 | COC(=O)CCCc1cc2cc(Cl)ccc2n1S(=O)(=O)c1cccc(Cl)c1Cl | 115 to 117 °C
61 | COc1cc(COc2ncccc2C#N)ccc1OCc1nc(-c2ccccc2)oc1C | 117 to 118 °C
62 | COC(=O)n1c(=O)n(C(C)C)c2nc(=O)[nH]cc21 | 303 to 306 °C
63 | O=C(NC(=O)c1ccccc1Cl)Nc1ccc(-c2ccc(Cl)cc2)cn1 | 228 to 231 °C
64 | CNC(=O)N1C[C@@H](Oc2cccc(C(F)(F)F)c2)[C@@H]1C (relative stereo) | 89 to 91 °C
65 | CCCc1ccc(OCCCc2cc3c(cc2O)CCO3)cc1 | 101 to 102 °C
66 | NC(=S)c1ccccc1Nc1cccc(C(F)(F)F)c1 | 106 to 108 °C
67 | Nc1nc(C(F)(F)F)cc(C(F)(F)F)n1 | 94.5 to 96 °C
68 | CC(=O)NC[C@H]1CN(c2cc(F)c(N3CCC(Cc4noc(C)n4)CC3)c(F)c2)C(=O)O1 | 134 to 136 °C
69 | N#CC(N)=C(C#N)N=C=CCc1cnn(-c2c(Cl)cc(C(F)(F)F)cc2Cl)n1 | 207 to 209 °C
70 | CN1C(=O)CN=C(c2ccccc2F)c2c1ccc(N)c2Cl | 126 °C
71 | O=Cc1ccc(C=Cc2ccc3ccccc3n2)cc1 | 112 to 113 °C
72 | Cc1cc(N(C)N)nnc1-c1ccc(C#N)cc1 | 149 to 152 °C
73 | CC(C)(C)c1cc(CCC(=O)OC2CCCCCCCCCCC2OC(=O)CCc2cc(C(C)(C)C)c(O)c(C(C)(C)C)c2)cc(C(C)(C)C)c1O (stereo not given) | 61 to 74 °C
74 | Cc1ccc2c(c1)OC(CCO)C(=O)N2Cc1cccc(Cl)c1 (stereo not given) | 72 to 74 °C
75 | COc1cc2c(Nc3ccc(Sc4nccn4C)c(Cl)c3)c(C#N)cnc2cc1N(C)CCCN(C)C | 196 to 201 °C
76 | Cc1cc(C2=NOC(c3cc(Cl)cc(Cl)c3)(C(F)(F)F)C2)ccc1C(=O)N(C)C1CCCS1 (stereo not given) | 146 to 151 °C
77 | O=C(O)CCCCCCCCCCCCCCCBr | 67 to 69 °C
78 | O=C(NCCCCOc1ccc(-n2ccnc2)cc1)c1cccc2ccccc12 | 157 to 159 °C
79 | Clc1cc(Cl)c2c(c1)COCO2 | 111 to 112 °C
80 | CC1=CC(c2ccccc2)C(c2cccs2)=NN1 (stereo not given) | 150 °C

Row | SMILES | melting point
81 | CN(C)C(=O)n1nc(-c2ccccc2)c(-c2ccccc2)c(C#N)c1=O | 231 °C
82 | N#CC1(CCNC(=O)C(Cl)Cl)CC1 | 97 to 100 °C
83 | Cn1cc(OS(C)(=O)=O)c(=O)c2ccc(S(C)(=O)=O)cc21 | 258 to 260 °C
84 | CCCOc1ccc(-c2ccc3c(c2)C=C(C(=O)O)CCS3(=O)=O)cc1 | 270 to 273 °C
85 | CCOC(=O)c1cc2c(F)c(Cl)ccc2[nH]1 | 143 to 145 °C
86 | COc1cccc([C@H]2O[C@H](CC(=O)Nc3cc(C(=O)O)ccc3C)C(=O)N(CC(C)(C)CO)c3ccc(Cl)cc32)c1OC | 172 to 173 °C
87 | COc1cc(OCCCN2CCc3cc(OC)c(OC)cc3C2)ccc1NC(=O)c1cccc2c(=O)c3cccc(C)c3[nH]c12 | 183 to 184 °C
88 | CC(C)(C)C(=O)Nc1cc(Cl)c([N+](=O)[O-])cc1Cl | 142 to 145 °C
89 | CN(C)Cc1cc2cc(C(=O)NN)ccc2o1 | 82 to 92 °C
90 | CN1C(=O)C(c2c[nH]c3ncccc23)=C(c2cn(S(=O)(=O)c3ccccc3)c3ncccc23)C1=O | 198 °C
91 | C1=C(c2ccc3c(c2)OCO3)CCN(Cc2n[nH]c3ccccc23)C1 | 139 to 141 °C
92 | O=Cc1scc2c3ccccc3c3ccccc3c12 | 198 to 199 °C
93 | Oc1ccc(C(c2ccc(O)cc2)(c2ccc(I)cc2)C(F)(F)F)cc1 | 187 to 189 °C
94 | CCN1CC(OCC2(C)CC2)(C(F)(F)F)c2cc(Cl)ccc2NC1=O (stereo not given) | 171 to 172 °C
95 | CSC1Cc2cc(Cl)ccc2C1=O (stereo not given) | 90 °C
96 | Cc1cccc(C)c1Nc1nc(-c2nc3ccc(C(F)(F)F)cc3[nH]2)cs1 | 250 to 251 °C
97 | COc1c(-c2ccc3cc(NS(C)(=O)=O)ccc3c2)cc(NC(N)=O)cc1C(C)(C)C | > 300 °C
98 | COc1ccccc1-n1c(=O)[nH]c2c(C(N)=O)nc(Nc3ccc(Cn4ccnc4)cc3)nc21 | 165 to 170 °C
99 | O=C1SC(Cc2ccc(OCCON=Cc3ccc(-c4ccccc4)nc3)cc2)C(=O)N1C(c1ccccc1)(c1ccccc1)c1ccccc1 (stereo not given) | 146 to 148 °C
100 | CCN(CC)Cc1nc2cc(OC)c(OC)cc2c(-c2ccc(OC)c(OC)c2)c1C(C)O (stereo not given) | 144 to 145 °C
